In US4350676A, “Ophthalmic use of carboxyfluorescein” (priority 1981, dated 1982):
Read-outs that look alike come from different tables or passages of the source.

Key:
physchem = details: for logD at 10 µM / logD at 1000 µM / Partition ratio octanol/buffer: octanol/0.1 m phosphate buffer
Method: Octanol/buffer partition ratios: The ratio of concentrations of a given solute in equilibrium distribution between two immiscible solvents is termed the partition coefficient. This expression properly refers only to the distribution of a single molecular species between the two phases. […] Total dye concentration in the two solvent phases was measured without correction for ionization or self-association and the recommended term, "partition ratio", is used to refer to these uncorrected distributions.
Carboxyfluorescein (Eastman Kodak Co., Rochester) or sodium fluorescein (Sigma Chemical Co., St. Louis) was dissolved at concentrations of 10^-3 M or 10^-5 M in octanol-saturated 0.1 M phosphate buffer at different pH values between 6.40 and 8.03. The aqueous dye solutions were equilibrated with equal volumes of buffer-saturated octanol by 100 inversions during 5 minutes, and the phases were separated by centrifugation. Dye concentrations were measured spectrofluorophotometrically at excitation and emmision wavelengths of 487 and 512 nm, respectively, with an Aminco-Bowman Ratio Spectrofluorophotometer.
Two methods were used to calculate partition ratios. In the first, the dye concentration in the aqueous phase was measured before (Cb) and after (Ca) partitioning, and the ratio was obtained from the equation:
P.R.=Coct/Caq=(Cb -Ca)/Ca,
where Coct and Caq are the dye concentration in the octanol and aqueous phases respectively after equilibration. In the second method, concentration in the octanol phase was determined by extracting the dye from octanol with an equal volume 0.1 N NaOH. […] Therefore, dye concentration in the first base extract was accepted as the concentration in the octanol phase and calculated the partition ratio from the equation: […]

[1] = test system: blood-ocular barriers (choroid and retina); type: in vivo, male Wistar rats; details: rat, iv
Text: To determine whether a less membrane permeable dye than fluorescein has value as a probe of the structural and functional integrity of the blood-ocular barriers we have undertaken studies of carboxyfluorescein, a compound with the same fluorescence characteristics as fluorescein, but with lower lipid solubility at physiological pH (7). In particular, the lipid solubility of carboxyfluorescein was compared with fluorescein by measuring dye partitioning between octanol and aqueous buffer at different pH to determine solubility behavior relevant to the permeability of cell membranes in vivo. Studies were then made of the ocular distribution carboxyfluorescein in rats after intravenous injection using quantitative fluorescence microscopy; and compared to the results for fluorescein. The plasma binding of carboxyfluorescein was also studied and compared to fluorescein.
(§1) Intra-ocular dye distribution: Young male Wistar rats (180-250 g) under pentobarital anesthesia (50 mg/kg i.p.) were injected intravenously with carboxyfluorescein or fluorescein solutions (pH 7.4) at doses of 12.5, 62.5 and 125 mg/kg. One minute after dye injection, the eyes were removed and immediately frozen in isopentane cooled to -110° C. by a liquid nitrogen bath. Between 2 and 4 minutes after injection a blood sample from the abdominal aorta was drawn into a heparinized syringe for determination of the concentration of unbound dye in plasma. The frozen eyes were dried under vacuum at -35° C. and embedded in paraffin. After embedding the eyes were stored under vacuum at -20° C. to minimize the development of autofluorescence. Additional eyes from normal rats not injected with dye were processed and stored identically for measurement of tissue autofluorescence. Immediately prior to examination with the fluorescence microscope, sections were cut at a thickness of 12 microns, placed on glass slides, and mounted with xylene.
Fluorescence intensity in small areas of the tissue sections was measured with a 450 u fiber optic probe placed in the object plane of an ocular and connected to a photomultiplier tube. An amplified signal from the photomultiplier was recorded with a digital voltmeter. The illumination system consisted of a 50 W high pressure mercury light source and an epifluorescence condensor equipped with a 455-490 nm exciter filter, a 510 nm dichroic beam splitter, and a 520 nm barrier filter. All measurements were performed using a 63X oil objective (N.A. 1.4). With this magnification, an aperture in the object plane restricted the area of illumination to a circle, 24 microns in diameter. The fiber optic probe covered a specimen field, 6 microns in diameter, centered in the larger illuminated field.
Fluorescence intensity of four tissue layers was recorded in the posterior segment: the inner plexiform, outer nuclear, and photoreceptor outer segment layers of the retina, and the choriocapillaris. Each of these layers is of sufficient width so that the illuminated area encompassed a homogeneous field. Foci of intense fluorescence, such as dye filled retinal capillaries, within the illumination field but outside the detection area of the fiber optic probe, can increase the recorded signal by light scatter into the detection area. Fields containing such bright foci were avoided. Examination of the section, location of the area for measurement, and focusing of the image was accomplished under dim green illumination from a tungsten lamp. The illumination was then switched to the fluorescence system, and the maximum value of fluorescence intensity was recorded as voltage. Measurements were made at 12 sites in each layer to obtain the average fluorescence intensities for an individual eye. These values were then corrected for tissue autofluorescence by subtracting the average fluorescence intensity of each layer in eyes from animals not injected with dye. […]

[2] = Measurement of unbound dye in plasma of injected rats (dialysis); type: in vivo, male Wistar rats; details: rat; for Plasma unbound dye concentration: blood 2-4 min after injection
Method: as §1
(§2) Measurement of unbound dye in plasma: Plasma was separated by centrifugation from the heparinized blood obtained from rats injected with sodium fluorescein or carboxyfluorescein in the intraocular dye distribution study. The plasma was dialyzed for 24 hours at 37° C. against 0.1 M phosphate buffer at pH 7.4 using cellulose dialysis tubing with a 3500 molecular weight cut-off. Dye concentration was measured in the dialysate spectrofluorophotometrically and from this value calculated the unbound plasma dye concentration.

[3] = Dialyzable (unbound) fraction of dye in human plasma; type: in vitro ADME; details: human plasma, 37° C., read-out: Dialyzable fraction (mean ± S.E.M.)
Method: as §2
(§3) To study the fraction of unbound dye in human plasma, there was added small aliquots of carboxyfluorescein and sodium fluorescein solutions to plasma separated from heparinized human blood so that the final dye concentration in the plasma was between 10^-3 M and 10^-6 M. The plasma/dye mixture was incubated for 2 hours at 37° C. Then using the dialysis and measuring procedures described above, the ratio of unbound dye to total dye in the plasma mixture was calculated.

[4] = cited from earlier work
[5] = cited from earlier work; remark: listed apart in the source
cornea = details: topical; cited from earlier work
[6] = test system: active transport system in the anterior uvea; details: outward, from eye to blood; cited from earlier work
human plasma proteins = assay: Dialyzable (unbound) fraction of dye in human plasma; type: in vitro ADME; details: for Dialyzable fraction (mean ± S.E.M.): human, plasma
Method: as §2, §3

rabbit eyes = test system: rabbit eyes
Method: Carboxyfluorescein was prepared as a 1% solution in water, buffered to pH 7.4. Carboxyfluorescein was made into strip form, using strips of #1 filter paper, impregnated with carboxyfluorescein and allowed to dry. The carboxyfluorescein was applied to rabbit eyes both with the paper impregnated strip and also as a 1% topical drop.

O=C1OC2(c3ccc(O)cc3Oc3cc(O)ccc32)c2ccccc21 [fluorescein]
logD at 10 µM (physchem; pH 6.42): 1.58 | logD at 1000 µM (physchem; pH 6.42): 1.54 | logD at 10 µM (physchem; pH 6.87): 0.69 | logD at 1000 µM (physchem; pH 6.87): 0.708 | logD at 10 µM (physchem; pH 7.38): -0.194 | logD at 1000 µM (physchem; pH 7.38): -0.292 | logD at 10 µM (physchem; pH 8.03): -1.52 | logD at 1000 µM (physchem; pH 8.03): -1.42 | pH at which partition ratio reaches 1.0 (physchem; octanol/buffer): 7.25 | Fluorescence of iris epithelium ([1]; in vivo): brightly stains the cells of the ciliary and iris epithelium | Outer segment layer values relative to deeper retinal layers ([1]; in vivo): twice as high | Tissue relative fluorescence intensity, IPL (mean ± S.E.M.) ([1]; in vivo, 12.5 mg/kg): .021 | Tissue relative fluorescence intensity, ONL (mean ± S.E.M.) ([1]; in vivo, 12.5 mg/kg): .011 ± .001 | Tissue relative fluorescence intensity, choroid (mean ± S.E.M.) ([1]; in vivo, 12.5 mg/kg): .57 ± .03 | Tissue relative fluorescence intensity, outer segments (mean ± S.E.M.) ([1]; in vivo, 12.5 mg/kg): .032 ± .003 | Tissue relative fluorescence intensity, IPL (mean ± S.E.M.) ([1]; in vivo, 62.5 mg/kg): .086 | Tissue relative fluorescence intensity, ONL (mean ± S.E.M.) ([1]; in vivo, 62.5 mg/kg): .076 ± .004 | Tissue relative fluorescence intensity, choroid (mean ± S.E.M.) ([1]; in vivo, 62.5 mg/kg): 2.7 ± .2 | Tissue relative fluorescence intensity, outer segments (mean ± S.E.M.) ([1]; in vivo, 62.5 mg/kg): .153 ± .008 | Tissue relative fluorescence intensity, IPL (mean ± S.E.M.) ([1]; in vivo, 125 mg/kg): .150 | Tissue relative fluorescence intensity, ONL (mean ± S.E.M.) ([1]; in vivo, 125 mg/kg): .196 ± .011 | Tissue relative fluorescence intensity, choroid (mean ± S.E.M.) ([1]; in vivo, 125 mg/kg): 5.7 ± .5 | Tissue relative fluorescence intensity, outer segments (mean ± S.E.M.) ([1]; in vivo, 125 mg/kg): .452 ± .021 | Outer segment layer values relative to choroid ([1]; in vivo, 1 min): 6-8% | Plasma unbound dye concentration ([2]; i.v. 12.5 mg/kg): .04 ± .03 mg/mL | Plasma unbound dye concentration ([2]; i.v. 62.5 mg/kg): .18 ± .01 mg/mL | Plasma unbound dye concentration ([2]; i.v. 125 mg/kg): .29 ± .01 mg/mL | fraction unbound at 1000 µM ([3]; 10^-3 M): 0.3 ± 0.02 | fraction unbound at 100 µM ([3]; 10^-4 M): 0.33 ± 0.03 | fraction unbound at 10 µM ([3]; 10^-5 M): 0.33 ± 0.01 | fraction unbound at 1 µM ([3]; 10^-6 M): 0.32 ± 0.02 | Partition coefficient octanol/artificial sea water [4]: 0.6 | pKa, divalent/monovalent anion ([5]; dianion/monoanion): 6.7 | pKa, monoanion/neutral molecule ([5]; second listed pKa): 4.4 | pKa, neutral molecule/cation ([5]; third listed pKa): 2.2 | Corneal penetration and artificial aqueous flare (cornea): its ready penetration through the cornea into the aqueous humor creates an artificial aqueous flare | Substrate for active transport [6]: serves as a substrate for an active transport system in the anterior uvea

carboxyfluorescein
Partition ratio octanol/buffer (physchem; 10 µM, pH 6.42): .037 | Partition ratio octanol/buffer (physchem; 10 µM, pH 6.87): .0030 | Partition ratio octanol/buffer (physchem; 10 µM, pH 7.38): .0007 | Partition ratio octanol/buffer (physchem; 1000 µM, pH 6.42): .033 | Partition ratio octanol/buffer (physchem; 1000 µM, pH 6.87): .0028 | Partition ratio octanol/buffer (physchem; 1000 µM, pH 7.38): .0008 | Partition ratio octanol/buffer (physchem; 1000 µM, pH 8.03): .00006 | Partition ratio (physchem; octanol/phosphate buffer, pH 6.4): below 0.1 | Fluorescence of iris stroma ([1]; in vivo): the intensity of fluorescence is less than that seen with fluorescein | Tissue relative fluorescence intensity, IPL (mean ± S.E.M.) ([1]; in vivo, 62.5 mg/kg): .001 | Tissue relative fluorescence intensity, ONL (mean ± S.E.M.) ([1]; in vivo, 62.5 mg/kg): .002 ± .001 | Tissue relative fluorescence intensity, choroid (mean ± S.E.M.) ([1]; in vivo, 62.5 mg/kg): 8.0 ± .4 | Tissue relative fluorescence intensity, outer segments (mean ± S.E.M.) ([1]; in vivo, 62.5 mg/kg): .008 ± .001 | Tissue relative fluorescence intensity, IPL (mean ± S.E.M.) ([1]; in vivo, 125 mg/kg): .002 | Tissue relative fluorescence intensity, ONL (mean ± S.E.M.) ([1]; in vivo, 125 mg/kg): .003 ± .001 | Tissue relative fluorescence intensity, choroid (mean ± S.E.M.) ([1]; in vivo, 125 mg/kg): 7.8 ± .8 | Tissue relative fluorescence intensity, outer segments (mean ± S.E.M.) ([1]; in vivo, 125 mg/kg): .006 ± .003 | Permeability of blood-ocular barriers to intravascular dye ([1]; not told): markedly less permeable to intravascular carboxyfluorescein than to fluorescein | Plasma unbound dye concentration compared with fluorescein ([2]; in vivo, iv): significantly higher than in animals injected with fluorescein | Binding to human plasma proteins compared with fluorescein (human plasma proteins): consistently less bound to human plasma proteins than fluorescein | Dialyzable fraction (mean ± S.E.M.) (human plasma proteins; 1 µM): .46 ± .01 | Dialyzable fraction (mean ± S.E.M.) (human plasma proteins; 10 µM): .51 ± .03 | Dialyzable fraction (mean ± S.E.M.) (human plasma proteins; 100 µM): .50 ± .01 | Dialyzable fraction (mean ± S.E.M.) (human plasma proteins; 1000 µM): .61 ± .02 | Persistence of stain (rabbit eyes; corneal abrasion, observation 30 to 45 minutes): persisted but lessened in intensity | Staining of corneal epithelial defect (rabbit eyes; experimental corneal abrasion): densely stained the corneal epithelial defect | Hyperemia or corneal changes (rabbit eyes; in vivo): no apparent hyperemia or corneal changes | Reaction / subjective discomfort (rabbit eyes; in vivo): did not react in a negative fashion | Visibility in tear film (rabbit eyes; topical, blue light): seen in the tear film
